Measured values published in ChEMBL document CHEMBL3044631, “Synthesis of 2-[4,5-dimethyl-1-(phenylamino)-1H-imidazol-2-ylthio]-N-(thiazole-2-yl)acetamide derivatives and their anticancer activities” (2013).

Experiments:
Type in all cases: functional
SR = assay: Anticancer activity against Homo sapiens (human) SR cells assessed as cell growth promotion at 10 uM after 48 hr by SRB assay
NCI/ADR-RES = assay: Anticancer activity against Homo sapiens (human) NCI/ADR-RES cells assessed as cell growth promotion at 10 uM after 48 hr by SRB assay
Hs-578T = assay: Anticancer activity against Homo sapiens (human) Hs 578T cells assessed as cell growth promotion at 10 uM after 48 hr by SRB assay
NCI-H460 = assay: Anticancer activity against Homo sapiens (human) NCI-H460 cells assessed as cell growth promotion at 10 uM after 48 hr by SRB assay
HT-29 = assay: Anticancer activity against Homo sapiens (human) HT-29 cells assessed as cell growth promotion at 10 uM after 48 hr by SRB assay
MDA-MB-468 [1] = assay: Anticancer activity against Homo sapiens (human) MDA-MB-468 cells assessed as cell growth promotion at 10 uM after 48 hr by SRB assay
SK-MEL-28 = assay: Anticancer activity against Homo sapiens (human) SK-MEL-28 cells assessed as cell growth promotion at 10 uM after 48 hr by SRB assay
A549 [2] = assay: Anticancer activity against Homo sapiens (human) A549/ATCC cells assessed as cell growth promotion at 10 uM after 48 hr by SRB assay
U-251 = assay: Anticancer activity against Homo sapiens (human) U251 cells assessed as cell growth promotion at 10 uM after 48 hr by SRB assay
SK-OV-3 = assay: Anticancer activity against Homo sapiens (human) SKOV3 cells assessed as cell growth promotion at 10 uM after 48 hr by SRB assay
SW-620 = assay: Anticancer activity against Homo sapiens (human) SW620 cells assessed as cell growth promotion at 10 uM after 48 hr by SRB assay
CCRF-CEM = assay: Anticancer activity against Homo sapiens (human) CCRF-CEM cells assessed as cell growth promotion at 10 uM after 48 hr by SRB assay
CAKI-1 = assay: Anticancer activity against Homo sapiens (human) CAKI-1 cells assessed as cell growth promotion at 10 uM after 48 hr by SRB assay
K562 = assay: Anticancer activity against Homo sapiens (human) K562 cells assessed as cell growth promotion at 10 uM after 48 hr by SRB assay
SNB-75 [3] = assay: Anticancer activity against Homo sapiens (human) SNB75 cells assessed as cell growth promotion at 10 uM after 48 hr by SRB assay
IGROV-1 = assay: Anticancer activity against Homo sapiens (human) IGROV1 cells assessed as cell growth promotion at 10 uM after 48 hr by SRB assay
BT-549 = assay: Anticancer activity against Homo sapiens (human) BT549 cells assessed as cell growth promotion at 10 uM after 48 hr by SRB assay
SNB-19 = assay: Anticancer activity against Homo sapiens (human) SNB19 cells assessed as cell growth promotion at 10 uM after 48 hr by SRB assay
MOLT-4 [4] = assay: Anticancer activity against Homo sapiens (human) MOLT4 cells assessed as cell growth promotion at 10 uM after 48 hr by SRB assay
HCT-116 [5] = assay: Anticancer activity against Homo sapiens (human) HCT116 cells assessed as cell growth promotion at 10 uM after 48 hr by SRB assay
HCT-116 [6] = assay: Anticancer activity against Homo sapiens (human) HCT116 cells after 48 hr by SRB assay; details: HCT-116, 48 h
NCI-H522 = assay: Anticancer activity against Homo sapiens (human) NCI-H522 cells after 48 hr by SRB assay; details: NCI-H522, 48 h
T47D = assay: Anticancer activity against Homo sapiens (human) T47D cells after 48 hr by SRB assay
ACHN = assay: Anticancer activity against Homo sapiens (human) ACHN cells after 48 hr by SRB assay
OVCAR-5 = assay: Anticancer activity against Homo sapiens (human) OVCAR5 cells after 48 hr by SRB assay; details: OVCAR-5, 48 h
MDA-MB-435 = assay: Anticancer activity against Homo sapiens (human) MDA-MB-435 cells after 48 hr by SRB assay; details: MDA-MB-435, 48 h
A549 [7] = assay: Anticancer activity against Homo sapiens (human) A549/ATCC cells after 48 hr by SRB assay; details: A549, 48 h
UACC-62 = assay: Anticancer activity against Homo sapiens (human) UACC62 cells after 48 hr by SRB assay; details: UACC-62, 48 h
SNB-75 [8] = assay: Anticancer activity against Homo sapiens (human) SNB75 cells after 48 hr by SRB assay; details: SNB-75, 48 h
HOP-62 = assay: Anticancer activity against Homo sapiens (human) HOP62 cells after 48 hr by SRB assay; details: HOP-62, 48 h
COLO 205 = assay: Anticancer activity against Homo sapiens (human) COLO205 cells after 48 hr by SRB assay; details: COLO 205, 48 h
LOX IMVI = assay: Anticancer activity against Homo sapiens (human) LOXIMVI cells after 48 hr by SRB assay
MDA-MB-468 [9] = assay: Anticancer activity against Homo sapiens (human) MDA-MB-468 cells after 48 hr by SRB assay; details: MDA-MB-468, 48 h
MOLT-4 [10] = assay: Anticancer activity against Homo sapiens (human) MOLT4 cells after 48 hr by SRB assay; details: MOLT-4, 48 h
HCT-15 = assay: Anticancer activity against Homo sapiens (human) HCT15 cells after 48 hr by SRB assay; details: HCT-15, 48 h
HL-60(TB) = assay: Anticancer activity against Homo sapiens (human) HL-60(TB) cells after 48 hr by SRB assay; details: HL-60, 48 h
[11] = read-out: LC50 (the source's name)

CCOC(=O)c1csc(NC(=O)CSc2nc(C)c(C)n2Nc2ccc(C)cc2)n1
Activity (SR): 87.01%
Activity (NCI/ADR-RES): 70.04%
Activity (Hs-578T): 139.32%
Activity (NCI-H460): 109.11%
Activity (HT-29): 52.44%
Activity (MDA-MB-468 [1]): 67.17%
Activity (SK-MEL-28): 80.17%
Activity (A549 [2]): 82.13%
Activity (U-251): 76.07%
Activity (SK-OV-3): 90.71%
Activity (SW-620): 98.75%
Activity (CCRF-CEM): 24.68%
Activity (CAKI-1): 80.52%
Activity (K562): 78.51%
Activity (SNB-75 [3]): 83.76%
Activity (IGROV-1): 95.15%
Activity (BT-549): 91.44%
Activity (SNB-19): 75.4%
Activity (MOLT-4 [4]): 92.25%
Activity (HCT-116 [5]): 68.84%

Cc1nc(SCC(=O)Nc2nc(-c3ccc(Cl)cc3)cs2)n(Nc2ccccc2)c1C
Activity (SR): 12.66%
Activity (NCI/ADR-RES): 20.41%
Activity (Hs-578T): 70.58%
Activity (NCI-H460): 52.96%
GI50 (HCT-116 [6]): 1.84 µM
LC50 (HCT-116 [6]): 15.5 µM
TGI (HCT-116 [6]): 4.62 µM
GI50 (NCI-H522): 2.54 µM
LC50 (50% lethal concentration) (NCI-H522): 66.5 µM
TGI (NCI-H522): 13.7 µM
GI50 (T47D): 1.4 µM
TGI (T47D): 5.24 µM
CC50 (T47D; [11]): 34.6 µM
Activity (HT-29): 25.29%
Activity (MDA-MB-468 [1]): 21.05%
Activity (SK-MEL-28): 54.29%
Activity (A549 [2]): 28.85%
Activity (U-251): 36.61%
GI50 (ACHN): 3.67 µM
LC50 (concentration killing 50% of cells) (ACHN): 51.5 µM
TGI (ACHN): 14.1 µM
Activity (SK-OV-3): 68.56%
Activity (SW-620): 73.1%
GI50 (OVCAR-5): 2.65 µM
LC50 (OVCAR-5): 54.2 µM
TGI (OVCAR-5): 13.5 µM
GI50 (MDA-MB-435): 3.25 µM
LC50 (concentration killing 50% of cells) (MDA-MB-435): > 100 µM
TGI (MDA-MB-435): 21.8 µM
GI50 (A549 [7]): 2.9 µM
LC50 (A549 [7]): 40.1 µM
TGI (A549 [7]): 11.6 µM
GI50 (UACC-62): 3.09 µM
LC50 (UACC-62): 50.3 µM
TGI (UACC-62): 16.1 µM
Activity (CAKI-1): 36.74%
Activity (K562): 27.56%
GI50 (SNB-75 [8]): 3.48 µM
LC50 (SNB-75 [8]): 49.3 µM
TGI (SNB-75 [8]): 16.2 µM
Activity (SNB-75 [3]): 39.12%
Activity (IGROV-1): 68.44%
GI50 (HOP-62): 3.06 µM
LC50 (HOP-62): 31.7 µM
TGI (HOP-62): 9.63 µM
GI50 (COLO 205): 4.13 µM
TGI (COLO 205): 14.5 µM
CC50 (COLO 205; [11]): 49.8 µM
GI50 (LOX IMVI): 1.78 µM
LC50 (50% lethal concentration) (LOX IMVI): 7.79 µM
TGI (LOX IMVI): 3.72 µM
GI50 (MDA-MB-468 [9]): 1.45 µM
LC50 (MDA-MB-468 [9]): 40.4 µM
TGI (MDA-MB-468 [9]): 6.27 µM
Activity (BT-549): 54%
Activity (SNB-19): 59.64%
GI50 (MOLT-4 [10]): 2.51 µM
LC50 (50% lethal concentration) (MOLT-4 [10]): > 100 µM
TGI (MOLT-4 [10]): 9.94 µM
GI50 (HCT-15): 5.74 µM
TGI (HCT-15): 23.3 µM
CC50 (HCT-15; [11]): 76.9 µM
Activity (MOLT-4 [4]): 41.02%
GI50 (HL-60(TB)): 2.99 µM
TGI (HL-60(TB)): > 100 µM
CC50 (HL-60(TB); [11]): > 100 µM
Activity (HCT-116 [5]): 29.45%

Cc1nc(SCC(=O)Nc2nccs2)n(Nc2ccccc2)c1C
Activity (SR): 100.2%
Activity (NCI/ADR-RES): 96.1%
Activity (Hs-578T): 115.31%
Activity (NCI-H460): 102.18%
Activity (HT-29): 99.8%
Activity (MDA-MB-468 [1]): 105.55%
Activity (SK-MEL-28): 99.72%
Activity (A549 [2]): 98.55%
Activity (U-251): 102.44%
Activity (SK-OV-3): 102.5%
Activity (SW-620): 116.34%
Activity (CCRF-CEM): 102.19%
Activity (CAKI-1): 102.08%
Activity (K562): 101.35%
Activity (SNB-75 [3]): 85.3%
Activity (IGROV-1): 123.21%
Activity (BT-549): 96.32%
Activity (SNB-19): 108.55%
Activity (MOLT-4 [4]): 108.49%
Activity (HCT-116 [5]): 93.75%
